Here are results for three molecules from patent US10086028B2, “Method for treating vascular inflammation, improving skin beauty and improving male sexual function using ginseng berry” (AMOREPACIFIC CORPORATION, priority 2007, dated 2018).

Each structure is given as a SMILES string.

Assay [1] concerns melanocytes (MeI-Ab cells). The assay can be described thus: Inhibition of melanin generation in mouse melanocytes. To be noted: added for 3 consecutive days; sample 10 μg/mL. The assay is classed as cell-based, C57BL/6 mouse. The procedure:
Inhibition of melanin generation in mouse melanocytes was evaluated in order to confirm the effect of the ginseng berry extract of Example 1 of inhibiting melanin generation.
First, melanocytes (MeI-Ab cells) derived from C57BL/6 mouse [Dooley, T. P. et al, Skin Pharmacol., 7, pp. 188-200] were cultured in Dulbecco's modified Eagle's medium (DMEM) containing 10% FBS, 100 nM 2-O-tetradecanoylphorbol-13-acetate and 1 nM cholera toxin under the condition of 37° C., 5% CO2. The cultured MeI-Ab cells were separated using 0.25% trypsin-EDTA, and cultured on a 24-well plate to a concentration of 10^5 cells/well. Starting from day 2, the ginseng berry extract of Example 1 (1 μg/mL, 10 μg/mL and 100 μg/mL), the ginseng berry saponin concentrate of Example 2 (10 μg/mL), the ginseng root extract of Comparative Example 1 (10 μg/mL) or ginsenosides Rg1, Rg2, Rh1 or Re (10 μg/mL) was added for 3 consecutive days. Hydroquinone (10 μg/mL) was used as a positive control substance. Then, after removing the medium and washing with PBS, the cells were dissolved with 1 N sodium hydroxide. Absorbance was measured at 400 nm, and melanin generation inhibition ratio was calculated by Equation 3.

Assay [2] deals with IL1-β. The assay can be described thus: LPS-induced inflammatory factor IL1-β in mouse blood. The assay is classed as in vivo. To be noted: mouse blood about 12 h after LPS, intra-abdominal. The procedure: (§1) Based on the experimental result in the cell level, the effect of controlling vascular inflammation of the ginseng berry extract was tested in an animal model. Mice were grouped into a non-treated group, an LPS-induced group, a group treated with the ginseng berry extract of Example 1 (50 μg/mL and 100 μg/mL), a group treated with the ginseng berry saponin concentrate of Example 2 (100 μg/mL), a group treated with the ginseng root extract of Comparative Example 1 (100 μg/mL) and groups treated with ginsenosides Rg1, Rg2, Rh1 or Re (10 μg/mL and 20 μg/mL), with 5 mice per each group.
(§2) 100 mg of each test substance per kg body weight of mouse, diluted in saline solution (0.9% NaCl), was intra-abdominally injected three times from day 1 through day 3. 2 hours after the injection on day 3, LPS diluted in saline solution (1 μg/mL) was injected intra-abdominally at a concentration of about 4 mg per kg body weight of mouse to induce inflammation by inflammatory factors (PGE2, TNF-α and IL1-β). After approximately 12 hours, the abdomen of the mouse was cut open, and blood was taken from the artery of the heart and stored at […]. The blood was kept at room temperature for 30 minutes and, after centrifuge at 4° C. and 3,000 rpm for 10 minutes, the supernatant was kept at −20° C. Then, the inflammatory factors PGE2, TNF-α and IL1-β were identified by western blotting. Measurement was made twice and the mean value was calculated. The result is shown in Table 4 and FIG. 9 (PGE2 (ng/mL)), Table 5 and FIG. 10 (TNF-α (ng/mL)), and Table 6 and FIG. 11 (IL1-β (pg/mL)).

For assay [3], the system named is matrix metalloproteinase I (MMP-1). Briefly: Inhibition of UVB-induced MMP-1 expression in human fibroblasts (ELISA). It is filed as cell-based. To be noted: UVB 40 mJ/cm^2, 2nd day, relative to UV control; sample 10 μg/mL. On the procedure: Human fibroblasts were cultured on a 12-well plate incubator to a concentration of 10^5 cells/well. Then, after irradiating UVB at 40 mJ/cm^2, the medium was replaced by one including the ginseng berry extract of Example 1 (1 μg/mL and 10 μg/mL), the ginseng berry saponin concentrate of Example 2 (10 μg/mL), the ginseng root extract of Comparative Example 1 (10 μg/mL) or ginsenosides Rg1, Rg2, Rh1 or Re (10 μg/mL). 10 ng/mL TGF-β was used as a positive control substance. On the 2nd day of culturing, the cells were harvested and the quantity of produced matrix metalloproteinase I (MMP-1) was analyzed using ELISA. The result was calculated as a relative value with respect to the control group, which was irradiated with UV without treating with a test substance.
Background: ELISA stands for enzyme-linked immunosorbent assay.

For assay [4], the system named is PGE2. Briefly: LPS-induced inflammatory factor PGE2 in mouse blood. The assay is classed as in vivo. To be noted: mouse blood about 12 h after LPS, intra-abdominal. The procedure:
as §1, §2

Assay [5] relates to TNF-α. Briefly: LPS-induced inflammatory factor TNF-α in mouse blood. It is filed as in vivo. To be noted: mouse blood about 12 h after LPS, intra-abdominal. The procedure: as §1, §2
In assay [6] the test system is Human epidermal cells. Briefly: Hyaluronic acid production in human epidermal cells. It is filed as cell-based. To be noted: 48 hours, relative to control; sample 10 μg/mL. The procedure: Human epidermal cells were cultured and the medium was replaced by one containing the ginseng berry extract of Example 1 (1 μg/mL, 10 μg/mL and 100 μg/mL), the ginseng berry saponin concentrate of Example 2 (10 μg/mL), the ginseng root extract of Comparative Example 1 (10 μg/mL) or ginsenosides Rg1, Rg2, Rh1 or Re (10 μg/mL) or a general medium (control). The cells were then cultured for 48 hours under the same conditions. Then, the quantity of hyaluronic acid in the groups was compared using a hyaluronic acid measurement kit. The result is given as relative value with respect to the control group in Table 16 and FIG. 20.

The subject of assay [7] is Tumor Necrosis Factor α (TNF-α). The assay can be described thus: Inhibition of UV-induced TNF-α biosynthesis in human keratinocytes (ELISA). The assay is classed as cell-based. To be noted: UVB 30 mJ/cm^2, 6-24 hours, relative to UV control; sample 10 μg/mL. On the procedure: Human keratinocytes were cultured on a 12-well plate incubator to a concentration of 10^5 cells/well. Then, after irradiating UVB at 30 mJ/cm^2, the medium was replaced by one including the ginseng berry extract of Example 1 (0.1 μg/mL, 1 μg/mL and 10 μg/mL), the ginseng berry saponin concentrate of Example 2 (10 μg/mL), the ginseng root extract of Comparative Example 1 (0.1 μg/mL, 1 μg/mL and 10 μg/mL) or ginsenosides Rg1, Rg2, Rh1 or Re (10 μg/mL). After 6-24 hours of culturing, the cells were harvested and the quantity of TNF-α was analyzed using ELISA (Pharmingen 555212). The result was calculated as a relative value with respect to the control group, which was irradiated with UV without treating with a test substance.

For the molecule `CC(C)=CCC[C@](C)(O)[C@H]1CC[C@]2(C)[C@@H]1[C@H](O)C[C@@H]1[C@@]3(C)CC[C@H](O)C(C)(C)[C@@H]3[C@@H](O[C@@H]3O[C@H](CO)[C@@H](O)[C@H](O)[C@H]3O[C@@H]3O[C@@H](C)[C@H](O)[C@@H](O)[C@H]3O)C[C@]12C` [Rg2], the “Melanin generation inhibition ratio (%)” value in assay [1] came to 0%. In addition, in assay [2] (group (10 μg/mL)), the “IL1-β, Mean ± standard deviation” value is given as 131.50 ± 3.54 pg/mL; the “IL1-β, Result 1” value is 129 pg/mL; the “IL1-β, Result 2” value is listed as 134 pg/mL. In assay [2] (group (20 μg/mL)), the “IL1-β, Mean ± standard deviation” value is 125.00 ± 8.49 pg/mL; the “IL1-β, Result 1” value is 131 pg/mL; the “IL1-β, Result 2” value is on record as 119 pg/mL. Also, the “MMP-1 expression (%)” value in assay [3] stood at 90%. Further, in assay [4] (group (10 μg/mL)), the “PGE2, Mean ± standard deviation” value amounted to 6.15 ± 0.21 ng/mL; the “PGE2, Result 1” value was 6 ng/mL; the “PGE2, Result 2” value was 6.3 ng/mL. Also, in assay [4] (group (20 μg/mL)), the “PGE2, Mean ± standard deviation” value turned out to be 6.09 ± 0.09 ng/mL; the “PGE2, Result 1” value was 6.15 ng/mL; the “PGE2, Result 2” value is on record as 6.02 ng/mL. Also, in assay [5] (group (10 μg/mL)), the “TNF-α, Mean ± standard deviation” value was 35.05 ± 2.47 ng/mL; the “TNF-α, Result 1” value is 33.3 ng/mL; the “TNF-α, Result 2” value is listed as 36.8 ng/mL. Also, in assay [5] (group (20 μg/mL)), the “TNF-α, Mean ± standard deviation” value is reported as 31.60 ± 1.98 ng/mL; the “TNF-α, Result 1” value worked out at 30.2 ng/mL; the “TNF-α, Result 2” value was 33 ng/mL. Besides, the “Hyaluronic acid production (%)” value in assay [6] was 105%. The “TNF-α biosynthesis (%)” value in assay [7] was 101%.
`CC(C)=CCC[C@](C)(O)[C@H]1CC[C@]2(C)[C@@H]1[C@H](O)C[C@@H]1[C@@]3(C)CC[C@H](O)C(C)(C)[C@@H]3[C@@H](O[C@@H]3O[C@H](CO)[C@@H](O)[C@H](O)[C@H]3O)C[C@]12C` [Rh1]: the “Melanin generation inhibition ratio (%)” value in assay [1] was 2%. Also, in assay [2] (group (10 μg/mL)), the “IL1-β, Mean ± standard deviation” value came to 121.50 ± 7.78 pg/mL; the “IL1-β, Result 1” value worked out at 116 pg/mL; the “IL1-β, Result 2” value was 127 pg/mL. In addition, in assay [2] (group (20 μg/mL)), the “IL1-β, Mean ± standard deviation” value turned out to be 112.75 ± 6.72 pg/mL; the “IL1-β, Result 1” value turned out to be 108 pg/mL; the “IL1-β, Result 2” value is recorded as 117.5 pg/mL. Further, the “MMP-1 expression (%)” value in assay [3] amounted to 90%. Moreover, in assay [4] (group (10 μg/mL)), the “PGE2, Mean ± standard deviation” value is 6.13 ± 0.04 ng/mL; the “PGE2, Result 1” value was 6.15 ng/mL; the “PGE2, Result 2” value is 6.1 ng/mL. Besides, in assay [4] (group (20 μg/mL)), the “PGE2, Mean ± standard deviation” value worked out at 5.46 ± 0.20 ng/mL; the “PGE2, Result 1” value was 5.6 ng/mL; the “PGE2, Result 2” value came to 5.32 ng/mL. Besides, in assay [5] (group (10 μg/mL)), the “TNF-α, Mean ± standard deviation” value amounted to 32.55 ± 5.16 ng/mL; the “TNF-α, Result 1” value is recorded as 28.9 ng/mL; the “TNF-α, Result 2” value came to 36.2 ng/mL. Further, in assay [5] (group (20 μg/mL)), the “TNF-α, Mean ± standard deviation” value is 32.15 ± 3.32 ng/mL; the “TNF-α, Result 1” value is given as 29.8 ng/mL; the “TNF-α, Result 2” value amounted to 34.5 ng/mL. Also, in assay [6], the “Hyaluronic acid production (%)” value worked out at 100%. Besides, the “TNF-α biosynthesis (%)” value in assay [7] turned out to be 98%.
For `CC(C)=CCC[C@](C)(O[C@@H]1O[C@H](CO)[C@@H](O)[C@H](O)[C@H]1O)[C@H]1CC[C@]2(C)[C@@H]1[C@H](O)C[C@@H]1[C@@]3(C)CC[C@H](O)C(C)(C)[C@@H]3[C@@H](O[C@@H]3O[C@H](CO)[C@@H](O)[C@H](O)[C@H]3O)C[C@]12C` [Rg1], the “Melanin generation inhibition ratio (%)” value in assay [1] stood at 1%. In assay [2] (group (10 μg/mL)), the “IL1-β, Mean ± standard deviation” value came to 133.50 ± 7.78 pg/mL; the “IL1-β, Result 1” value worked out at 128 pg/mL; the “IL1-β, Result 2” value came out at 139 pg/mL. In assay [2] (group (20 μg/mL)), the “IL1-β, Mean ± standard deviation” value turned out to be 141.50 ± 9.19 pg/mL; the “IL1-β, Result 1” value amounted to 135 pg/mL; the “IL1-β, Result 2” value was determined as 148 pg/mL. Also, the “MMP-1 expression (%)” value in assay [3] was found to be 98%. Also, in assay [4] (group (10 μg/mL)), the “PGE2, Mean ± standard deviation” value came out at 6.32 ± 0.04 ng/mL; the “PGE2, Result 1” value is given as 6.29 ng/mL; the “PGE2, Result 2” value is 6.35 ng/mL. Moreover, in assay [4] (group (20 μg/mL)), the “PGE2, Mean ± standard deviation” value was 6.26 ± 0.07 ng/mL; the “PGE2, Result 1” value is 6.31 ng/mL; the “PGE2, Result 2” value is reported as 6.21 ng/mL. Further, in assay [5] (group (10 μg/mL)), the “TNF-α, Mean ± standard deviation” value was found to be 38.60 ± 2.69 ng/mL; the “TNF-α, Result 1” value turned out to be 36.7 ng/mL; the “TNF-α, Result 2” value was 40.5 ng/mL. In addition, in assay [5] (group (20 μg/mL)), the “TNF-α, Mean ± standard deviation” value worked out at 34.55 ± 2.90 ng/mL; the “TNF-α, Result 1” value turned out to be 36.6 ng/mL; the “TNF-α, Result 2” value is 32.5 ng/mL. Besides, in assay [6], the “Hyaluronic acid production (%)” value amounted to 100%. Also, in assay [7], the “TNF-α biosynthesis (%)” value is given as 98%.
